Assay results as given in PubChem BioAssay (NCI).
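Test compounds were applied to cells in 96-well plates for 48 hours at 5 doses. At the TGI there is no net growth.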

Experiments:
Test in all cases: growth of human tumour cells (NCI), 48 h
[1] = test system: BT-549 breast
[2] = test system: SF-295 CNS
[3] = test system: CAKI-1 renal
[4] = test system: SNB-19 CNS
[5] = test system: OVCAR-4 ovarian
[6] = test system: SF-268 CNS
[7] = test system: MDA-N
[8] = test system: HCT-15 colon
[9] = test system: HCC-2998 colon
[10] = test system: SK-MEL-5 melanoma
[11] = test system: HCT-116 colon
[12] = test system: SF-539 CNS
[13] = test system: OVCAR-8 ovarian
[14] = test system: A549 NSCLC
[15] = test system: UACC-257 melanoma
[16] = test system: MDA-MB-231 breast
[17] = test system: KM12 colon
[18] = test system: HOP-62 NSCLC
[19] = test system: HT29 colon
[20] = test system: SW-620 colon
[21] = test system: K-562 leukemia
[22] = test system: EKVX NSCLC
[23] = test system: RXF 393 renal
[24] = test system: OVCAR-5 ovarian
[25] = test system: LOX IMVI melanoma
[26] = test system: MCF7 breast
[27] = test system: NCI/ADR-RES ovarian
[28] = test system: SNB-75 CNS
[29] = test system: OVCAR-3 ovarian
[30] = test system: MALME-3M melanoma
[31] = test system: IGROV1 ovarian
[32] = test system: RPMI-8226 leukemia
[33] = test system: PC-3 prostate
[34] = test system: NCI-H226 lung
[35] = test system: NCI-H460 lung
[36] = test system: HS 578T breast
[37] = test system: DU-145 prostate
[38] = test system: SK-OV-3 ovarian
[39] = test system: HOP-92 NSCLC
[40] = test system: M14 melanoma
[41] = test system: MOLT-4 leukemia
[42] = test system: SR leukemia
[43] = test system: UACC-62 melanoma
[44] = test system: NCI-H522 lung
[45] = test system: NCI-H23 lung
[46] = test system: A498 renal
[47] = test system: SK-MEL-28 melanoma
[48] = test system: COLO 205 colon
[49] = test system: MDA-MB-435
[50] = test system: UO-31 renal
[51] = test system: TK-10 renal
[52] = test system: ACHN renal
[53] = test system: SK-MEL-2 melanoma
[54] = test system: 786-0 renal
[55] = test system: CCRF-CEM leukemia
[56] = test system: HL-60(TB) leukemia
[57] = test system: U251 CNS
[58] = test system: SN12C renal
[59] = test system: T-47D breast

`COc1ccc(Cc2nc3cc(C(F)(F)F)ccc3n2C[C@@H]2CCCN3CCCCC23)cc1` (some centres undefined) showed a TGI [1] of 28.5 µM, a TGI [2] of 12.3 µM and a TGI [3] of 25.6 µM. For the same compound, the TGI [4] was 27.4 µM, the TGI [5] was 25.1 µM and the TGI [6] was 19 µM. For the same compound, the TGI [7] was 13.2 µM, the TGI [8] was 30.8 µM and the TGI [9] was 5.94 µM. The TGI [10] was 20.3 µM, the TGI [11] was 20.4 µM and the TGI [12] was 28.1 µM. It also gave a TGI [13] of 30.3 µM, a TGI [14] of 24.7 µM and a TGI [15] of 6.77 µM. The TGI [16] was 25.2 µM, the TGI [17] was 27.4 µM and the TGI [18] was 23.2 µM. For the same compound, the TGI [19] was 15.4 µM, the TGI [20] was over 62.1 µM and the TGI [21] was over 64.8 µM. The TGI [22] was 27.7 µM, the TGI [23] was 22.3 µM and the TGI [24] was 27.8 µM. For the same compound, the TGI [25] was 24.9 µM, the TGI [26] was 26.2 µM and the TGI [27] was 30.7 µM. The TGI [28] was 77.4 µM, the TGI [29] was 12.8 µM and the TGI [30] was 8.88 µM. For the same compound, the TGI [31] was 15.7 µM, the TGI [32] was 94.8 µM and the TGI [33] was 24 µM. It also gave a TGI [34] of 37 µM, a TGI [35] of 31.1 µM and a TGI [36] of 65.9 µM. It also gave a TGI [37] of 26.6 µM, a TGI [38] of 28.4 µM and a TGI [39] of 20.7 µM. It also gave a TGI [40] of 7.14 µM, a TGI [41] of 31.7 µM and a TGI [42] of over 100 µM. It also gave a TGI [43] of 11.5 µM, a TGI [44] of 21.8 µM and a TGI [45] of 30.9 µM. It also gave a TGI [46] of 14.1 µM, a TGI [47] of 27.6 µM and a TGI [48] of 18.9 µM. It also gave a TGI [49] of 26.8 µM, a TGI [50] of 0.166 µM and a TGI [51] of 24.2 µM. The TGI [52] was 22.5 µM, the TGI [53] was 30.1 µM and the TGI [54] was 20.3 µM. The TGI [55] was over 44.5 µM, the TGI [56] was 19.5 µM and the TGI [57] was 27.7 µM. It also gave a TGI [58] of 22.3 µM and a TGI [59] of 22.9 µM.
